{
  "source": "ChEMBL document CHEMBL1667829",
  "about": "“Analysis of β-amino alcohols as inhibitors of the potential anti-tubercular target N-acetyltransferase” (Bioorg Med Chem Lett, 2011)",
  "key": {"[1]": {"system": "Mycobacterium marinum", "experiment": "Inhibition of Mycobacterium marinum NAT using isoniazed substrate at 30 uM by acetyl-coA hydrolysis assay"}, "[2]": {"experiment": "Inhibition of Mycobacterium marinum NAT using hydralazine substrate by acetyl-coA hydrolysis assay"}, "[3]": {"system": "Mycobacterium tuberculosis", "experiment": "Antimicrobial activity against Mycobacterium tuberculosis at 50 ug/ml relative to control", "assay_type": "functional"}, "[4]": {"target": "T1, Arylamine N-acetyltransferase (Pseudomonas aeruginosa (strain ATCC 15692 / PAO1 / 1C / PRS 101 / LMG12228), UniProt Q9HUY3)", "T1 sequence (Q9HUY3 whole entry)": "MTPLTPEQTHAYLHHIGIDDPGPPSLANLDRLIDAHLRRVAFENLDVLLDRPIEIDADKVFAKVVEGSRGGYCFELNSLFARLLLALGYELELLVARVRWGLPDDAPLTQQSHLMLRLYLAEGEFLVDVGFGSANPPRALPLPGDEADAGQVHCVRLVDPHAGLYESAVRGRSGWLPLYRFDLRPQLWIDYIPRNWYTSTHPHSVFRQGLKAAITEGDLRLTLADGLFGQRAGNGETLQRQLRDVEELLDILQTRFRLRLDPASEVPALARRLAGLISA", "experiment": "Inhibition of Pseudomonas aeruginosa NAT using 5-aminosalicylate substrate by acetyl-coA hydrolysis assay"}, "[5]": {"target": "T2, Arylamine N-acetyltransferase (Mycolicibacterium smegmatis, UniProt O86309)", "T2 sequence (O86309 whole entry)": "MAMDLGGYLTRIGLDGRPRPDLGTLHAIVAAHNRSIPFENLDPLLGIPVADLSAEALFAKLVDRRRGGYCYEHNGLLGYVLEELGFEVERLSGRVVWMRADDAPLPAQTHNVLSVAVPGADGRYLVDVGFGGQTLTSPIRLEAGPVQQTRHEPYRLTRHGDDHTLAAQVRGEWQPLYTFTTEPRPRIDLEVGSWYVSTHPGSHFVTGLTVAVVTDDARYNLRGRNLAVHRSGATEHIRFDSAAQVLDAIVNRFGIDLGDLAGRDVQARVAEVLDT", "experiment": "Inhibition of Mycobacterium smegmatis NAT using 5-aminosalicylate substrate by acetyl-coA hydrolysis assay"}, "[6]": {"target": "T2, Arylamine N-acetyltransferase", "experiment": "Inhibition of Mycobacterium smegmatis NAT using isoniazed substrate by acetyl-coA hydrolysis assay"}, "[7]": {"target": "T1, Arylamine N-acetyltransferase", "experiment": "Inhibition of Pseudomonas aeruginosa NAT using isoniazed substrate by acetyl-coA hydrolysis assay"}, "[8]": {"experiment": "Inhibition of Mycobacterium marinum NAT using 5-aminosalicylate substrate by acetyl-coA hydrolysis assay"}, "[9]": {"system": "Mycobacterium marinum", "experiment": "Antimicrobial activity against Mycobacterium marinum at 100 ug/ml", "assay_type": "functional, organism-based"}, "[10]": {"system": "Mycobacterium marinum", "experiment": "Antimicrobial activity against Mycobacterium marinum at 80 ug/ml", "assay_type": "functional, organism-based"}, "[11]": {"experiment": "Inhibition of Mycobacterium marinum NAT using isoniazed substrate by acetyl-coA hydrolysis assay"}},
  "note": "Active and inactive are the calls of the source. No cut-off for these calls is given here.",
  "data": [
    {"smiles": "O=C1NC(c2ccccc2)C(=O)N1CC(O)COc1ccccc1", "note": "(configuration not stated)", "values": [
      {"measurement": "inhibition", "setting": "[1]", "value": 0, "unit": "%"}
    ]},
    {"smiles": "CC1(C)NC(=O)N(CC(O)COc2ccccc2Br)C1=O", "note": "(configuration not stated)", "values": [
      {"measurement": "inhibition", "setting": "[1]", "value": 24, "unit": "%"}
    ]},
    {"smiles": "CC1(C)NC(=O)N(CC(O)COc2ccc(-c3ccccc3)cc2)C1=O", "note": "(configuration not stated)", "values": [
      {"measurement": "inhibition", "setting": "[1]", "value": 8, "unit": "%"}
    ]},
    {"smiles": "CC1(C)NC(=O)N(CC(O)COc2ccccc2[N+](=O)[O-])C1=O", "note": "(configuration not stated)", "values": [
      {"measurement": "inhibition", "setting": "[1]", "value": 4, "unit": "%"}
    ]},
    {"smiles": "Cc1ccccc1OCC(O)CN1C(=O)NC(C)(C)C1=O", "note": "(configuration not stated)", "values": [
      {"measurement": "inhibition", "setting": "[1]", "value": 0.5, "unit": "%"}
    ]},
    {"smiles": "CC1(C)NC(=O)N(CC(O)COc2ccccc2C2CCCC2)C1=O", "note": "(configuration not stated)", "values": [
      {"measurement": "IC50", "setting": "[2]", "value": 1.5, "unit": "µM"},
      {"measurement": "inhibition at 50 µg/mL", "setting": "[3]", "value": 20, "unit": "%"},
      {"measurement": "IC50", "setting": "[4]", "value": 16.2, "unit": "µM"},
      {"measurement": "IC50", "setting": "[5]", "value": 17.7, "unit": "µM"},
      {"measurement": "IC50", "setting": "[6]", "value": 9.4, "unit": "µM"},
      {"measurement": "IC50", "setting": "[7]", "value": 37, "unit": "µM"},
      {"measurement": "inhibition", "setting": "[1]", "value": 58, "unit": "%"},
      {"measurement": "IC50", "setting": "[8]", "value": 33.1, "unit": "µM"}
    ]},
    {"smiles": "CC1(C)NC(=O)N(CC(O)COc2ccccc2-c2ccccc2)C1=O", "note": "(configuration not stated)", "values": [
      {"measurement": "inhibition", "setting": "[1]", "value": 24, "unit": "%"}
    ]},
    {"smiles": "CC1(C)NC(=O)N(CC(O)COc2ccccc2-c2cccc3ccccc23)C1=O", "note": "(configuration not stated)", "values": [
      {"measurement": "inhibition", "setting": "[1]", "value": 28, "unit": "%"}
    ]},
    {"smiles": "CC1(C)NC(=O)N(CC(O)COc2ccccc2F)C1=O", "note": "(configuration not stated)", "values": [
      {"measurement": "inhibition", "setting": "[1]", "value": 0, "unit": "%"}
    ]},
    {"smiles": "CC1(C)NC(=O)N(CC(O)COc2cccc(-c3ccccc3)c2)C1=O", "note": "(configuration not stated)", "values": [
      {"measurement": "inhibition", "setting": "[1]", "value": 6, "unit": "%"}
    ]},
    {"smiles": "CC1(C)NC(=O)N(CC(O)COc2ccc(C3CCCC3)cc2)C1=O", "note": "(configuration not stated)", "values": [
      {"measurement": "Activity", "setting": "[9]", "value": "inactive"},
      {"measurement": "IC50", "setting": "[4]", "value": "> 50", "unit": "µM"},
      {"measurement": "Activity", "setting": "[10]", "value": "inactive"},
      {"measurement": "IC50", "setting": "[5]", "value": "> 50", "unit": "µM"},
      {"measurement": "IC50", "setting": "[6]", "value": "> 50", "unit": "µM"},
      {"measurement": "IC50", "setting": "[7]", "value": "> 50", "unit": "µM"},
      {"measurement": "IC50", "setting": "[11]", "value": "> 50", "unit": "µM"},
      {"measurement": "inhibition", "setting": "[1]", "value": 0, "unit": "%"},
      {"measurement": "IC50", "setting": "[8]", "value": "> 50", "unit": "µM"}
    ]},
    {"smiles": "O=C1CNC(=O)N1CC(O)COc1ccccc1", "note": "(configuration not stated)", "values": [
      {"measurement": "inhibition", "setting": "[1]", "value": 0, "unit": "%"}
    ]}
  ]
}
